PubChem BioAssay (NCI)
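Method: 48-hour compound exposure of cells in 96-well plates, five concentrations, linear interpolation of endpoints. Definition used: TGI = concentration required for complete inhibition of growth.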

Columns and labels:
Assay in all cases: inhibition of tumour cell growth, NCI panel, 48 h
MALME-3M melanoma = test system: MALME-3M melanoma
BT-549 breast = test system: BT-549 breast
OVCAR-8 ovarian = test system: OVCAR-8 ovarian
MDA-N = test system: MDA-N
NCI-H522 lung = test system: NCI-H522 lung
786-0 renal = test system: 786-0 renal
LOX IMVI melanoma = test system: LOX IMVI melanoma
HCC-2998 colon = test system: HCC-2998 colon
M14 melanoma = test system: M14 melanoma
DU-145 prostate = test system: DU-145 prostate
TK-10 renal = test system: TK-10 renal

`CCOc1cc(NC(C)=O)ccc1C(=O)NN1C(=O)C(Cl)C1c1ccco1` (configuration not stated) showed a TGI (MALME-3M melanoma) of 24.6 µM, a TGI (BT-549 breast) of 30.4 µM and a TGI (OVCAR-8 ovarian) of over 100 µM. It also gave a TGI (MDA-N) of 36.1 µM, a TGI (NCI-H522 lung) of 25.5 µM and a TGI (786-0 renal) of 30.8 µM. It also gave a TGI (LOX IMVI melanoma) of 13.1 µM, a TGI (HCC-2998 colon) of 29.5 µM and a TGI (M14 melanoma) of 36.8 µM. The TGI (DU-145 prostate) was 31.1 µM and the TGI (TK-10 renal) was 31.3 µM.

Work on `OC(c1ccc(-c2ccccc2)cc1)C(F)(F)c1nc2ccccc2o1` (configuration not stated) yielded a TGI (MALME-3M melanoma) of over 100 µM, a TGI (BT-549 breast) of over 100 µM and a TGI (OVCAR-8 ovarian) of over 93.1 µM. It also gave a TGI (MDA-N) of over 100 µM, a TGI (NCI-H522 lung) of over 100 µM and a TGI (786-0 renal) of 74.6 µM. For the same compound, the TGI (LOX IMVI melanoma) was over 100 µM, the TGI (HCC-2998 colon) was over 100 µM and the TGI (M14 melanoma) was over 100 µM. For the same compound, the TGI (DU-145 prostate) was over 82.7 µM and the TGI (TK-10 renal) was over 100 µM.

Work on `COc1nc(N)c(N=CC(OC(C)=O)C(OC(C)=O)C(COC(C)=O)OC(C)=O)c(=O)n1C` (configuration not stated) yielded a TGI (MALME-3M melanoma) of over 100 µM, a TGI (BT-549 breast) of over 100 µM and a TGI (OVCAR-8 ovarian) of over 100 µM. For the same compound, the TGI (MDA-N) was over 100 µM, the TGI (NCI-H522 lung) was over 100 µM and the TGI (786-0 renal) was over 100 µM. It also gave a TGI (LOX IMVI melanoma) of over 100 µM, a TGI (HCC-2998 colon) of over 100 µM and a TGI (M14 melanoma) of over 100 µM. The TGI (DU-145 prostate) was over 100 µM and the TGI (TK-10 renal) was over 100 µM.

`CCN(c1cccc(NC(=S)Nc2ccccc2N(CC)c2cc(-c3ccccc3)no2)c1)c1cc(-c2ccccc2)no1` was tested, and the TGI (MALME-3M melanoma) was over 100 µM, the TGI (BT-549 breast) was over 100 µM and the TGI (OVCAR-8 ovarian) was over 100 µM. It also gave a TGI (MDA-N) of over 100 µM, a TGI (NCI-H522 lung) of over 100 µM and a TGI (786-0 renal) of over 100 µM. For the same compound, the TGI (LOX IMVI melanoma) was over 100 µM, the TGI (HCC-2998 colon) was over 100 µM and the TGI (M14 melanoma) was over 100 µM. The TGI (DU-145 prostate) was over 100 µM and the TGI (TK-10 renal) was over 100 µM.

`CC(=O)OCC1OC(n2c(=O)[nH]c(=O)c3sccc32)C(Br)C1OC(C)=O` (configuration not stated) gave a TGI (MALME-3M melanoma) of over 100 µM, a TGI (BT-549 breast) of over 100 µM and a TGI (OVCAR-8 ovarian) of over 100 µM. The TGI (MDA-N) was over 100 µM, the TGI (NCI-H522 lung) was over 100 µM and the TGI (786-0 renal) was over 100 µM. It also gave a TGI (LOX IMVI melanoma) of over 100 µM, a TGI (HCC-2998 colon) of over 100 µM and a TGI (M14 melanoma) of over 100 µM. It also gave a TGI (DU-145 prostate) of over 100 µM and a TGI (TK-10 renal) of over 100 µM.

Work on `Cc1cc(NCCCCCCCNc2cc(C)nc3cc([N+](=O)[O-])ccc23)c2ccc([N+](=O)[O-])cc2n1` yielded a TGI (MALME-3M melanoma) of over 71.1 µM, a TGI (BT-549 breast) of 67.3 µM and a TGI (OVCAR-8 ovarian) of 3.85 µM. For the same compound, the TGI (MDA-N) was 3.18 µM, the TGI (NCI-H522 lung) was 2.78 µM and the TGI (786-0 renal) was 39.3 µM. It also gave a TGI (LOX IMVI melanoma) of 5.69 µM, a TGI (HCC-2998 colon) of over 55.6 µM and a TGI (M14 melanoma) of 41.2 µM. For the same compound, the TGI (DU-145 prostate) was 11 µM and the TGI (TK-10 renal) was 39 µM.

Work on `FC(F)(F)c1ccc2nc(Sc3ccccn3)cnc2c1` yielded a TGI (MALME-3M melanoma) of over 100 µM, a TGI (BT-549 breast) of 68.1 µM and a TGI (OVCAR-8 ovarian) of over 100 µM. For the same compound, the TGI (MDA-N) was over 100 µM, the TGI (NCI-H522 lung) was 43.7 µM and the TGI (786-0 renal) was 62.1 µM. For the same compound, the TGI (LOX IMVI melanoma) was over 100 µM, the TGI (HCC-2998 colon) was 38.3 µM and the TGI (M14 melanoma) was over 100 µM. For the same compound, the TGI (DU-145 prostate) was over 100 µM and the TGI (TK-10 renal) was over 100 µM.

`COc1cc(C(c2ccc3c(c2)OCO3)N2C(=O)CCC2C(=O)O)cc(OC)c1OC` (configuration not stated) was tested, and the TGI (MALME-3M melanoma) was over 100 µM, the TGI (BT-549 breast) was over 100 µM and the TGI (OVCAR-8 ovarian) was over 100 µM. It also gave a TGI (MDA-N) of over 100 µM, a TGI (NCI-H522 lung) of over 100 µM and a TGI (786-0 renal) of over 100 µM. It also gave a TGI (LOX IMVI melanoma) of over 100 µM, a TGI (HCC-2998 colon) of over 100 µM and a TGI (M14 melanoma) of over 100 µM. It also gave a TGI (DU-145 prostate) of over 100 µM and a TGI (TK-10 renal) of over 100 µM.

`CC(C)(CC(O)C#N)/[N+]([O-])=[N+](\[O-])C(C)(C)CC(O)C#N` (configuration not stated) showed a TGI (MALME-3M melanoma) of 54.2 µM, a TGI (BT-549 breast) of 78.8 µM and a TGI (OVCAR-8 ovarian) of over 100 µM. It also gave a TGI (MDA-N) of 59.5 µM, a TGI (NCI-H522 lung) of 35.4 µM and a TGI (786-0 renal) of 47.5 µM. The TGI (LOX IMVI melanoma) was 42.7 µM, the TGI (HCC-2998 colon) was 34.2 µM and the TGI (M14 melanoma) was 36.9 µM. For the same compound, the TGI (DU-145 prostate) was 92.9 µM and the TGI (TK-10 renal) was 96 µM.

`N#C/C(=C\c1c[nH]c2ccccc12)C(=O)c1ccc(O)c(O)c1` gave a TGI (MALME-3M melanoma) of over 78.8 µM, a TGI (BT-549 breast) of 65.1 µM and a TGI (OVCAR-8 ovarian) of over 100 µM. It also gave a TGI (MDA-N) of over 100 µM, a TGI (NCI-H522 lung) of over 93 µM and a TGI (786-0 renal) of over 62 µM. The TGI (LOX IMVI melanoma) was over 100 µM, the TGI (HCC-2998 colon) was over 100 µM and the TGI (M14 melanoma) was over 100 µM. It also gave a TGI (DU-145 prostate) of over 100 µM and a TGI (TK-10 renal) of 98.2 µM.

Work on `O=C(CSC1=NCCN1)Nc1ccccc1` yielded a TGI (MALME-3M melanoma) of 60 µM, a TGI (BT-549 breast) of 59.5 µM and a TGI (OVCAR-8 ovarian) of over 100 µM. The TGI (MDA-N) was 59 µM, the TGI (NCI-H522 lung) was 38.7 µM and the TGI (786-0 renal) was 50.1 µM. The TGI (LOX IMVI melanoma) was 39.2 µM, the TGI (HCC-2998 colon) was 63.1 µM and the TGI (M14 melanoma) was over 100 µM. The TGI (DU-145 prostate) was over 100 µM and the TGI (TK-10 renal) was 43.9 µM.

Work on `c1ccc(CSCCc2ccncc2)cc1` yielded a TGI (MALME-3M melanoma) of over 100 µM, a TGI (BT-549 breast) of over 100 µM and a TGI (OVCAR-8 ovarian) of over 100 µM. For the same compound, the TGI (MDA-N) was over 100 µM, the TGI (NCI-H522 lung) was over 100 µM and the TGI (786-0 renal) was over 100 µM. The TGI (LOX IMVI melanoma) was over 100 µM, the TGI (HCC-2998 colon) was over 100 µM and the TGI (M14 melanoma) was over 100 µM. It also gave a TGI (DU-145 prostate) of over 100 µM and a TGI (TK-10 renal) of over 100 µM.

For `CCOP(=O)(OCC)C(C)(CC)NC` (configuration not stated), the TGI (MALME-3M melanoma) was over 100 µM, the TGI (BT-549 breast) was over 100 µM and the TGI (OVCAR-8 ovarian) was over 100 µM. It also gave a TGI (MDA-N) of over 100 µM, a TGI (NCI-H522 lung) of over 100 µM and a TGI (786-0 renal) of over 100 µM. It also gave a TGI (LOX IMVI melanoma) of over 100 µM, a TGI (HCC-2998 colon) of over 100 µM and a TGI (M14 melanoma) of over 100 µM. The TGI (DU-145 prostate) was over 100 µM and the TGI (TK-10 renal) was over 100 µM.

For `CCC(c1c[nH]c2ccc(Br)cc12)c1c[nH]c2ccc(Br)cc12`, the TGI (MALME-3M melanoma) was 24.9 µM, the TGI (BT-549 breast) was 23.3 µM and the TGI (OVCAR-8 ovarian) was 21.2 µM. The TGI (MDA-N) was 16 µM, the TGI (NCI-H522 lung) was 18.1 µM and the TGI (786-0 renal) was 11.2 µM. For the same compound, the TGI (LOX IMVI melanoma) was 6.66 µM, the TGI (HCC-2998 colon) was 5.73 µM and the TGI (M14 melanoma) was 14.2 µM. It also gave a TGI (DU-145 prostate) of 10.8 µM and a TGI (TK-10 renal) of 22.9 µM.

`C[C@H]1C=C2[C@@H]3CC(C)(C(=O)O)CC[C@]3(C)CC[C@]2(C)[C@]2(C)CC[C@H]3C(C)(C)[C@@H](OC(=O)c4cccc5c(=O)c6ccccc6[nH]c45)CC[C@]3(C)[C@@H]12` (some centres not stated) showed a TGI (MALME-3M melanoma) of over 100 µM, a TGI (BT-549 breast) of over 100 µM and a TGI (OVCAR-8 ovarian) of over 100 µM. It also gave a TGI (MDA-N) of over 100 µM, a TGI (NCI-H522 lung) of over 100 µM and a TGI (786-0 renal) of over 100 µM. For the same compound, the TGI (LOX IMVI melanoma) was over 100 µM, the TGI (HCC-2998 colon) was over 100 µM and the TGI (M14 melanoma) was over 100 µM. It also gave a TGI (DU-145 prostate) of over 100 µM and a TGI (TK-10 renal) of over 100 µM.

Work on `OC1(c2ccccc2)CSC2=Nc3ccccc3C3CCN1N23` (configuration not stated) yielded a TGI (MALME-3M melanoma) of 81.7 µM, a TGI (BT-549 breast) of 57.4 µM and a TGI (OVCAR-8 ovarian) of 43.5 µM. It also gave a TGI (MDA-N) of 27.2 µM, a TGI (NCI-H522 lung) of 40.5 µM and a TGI (786-0 renal) of 34.4 µM. For the same compound, the TGI (LOX IMVI melanoma) was 36.9 µM, the TGI (HCC-2998 colon) was 88.7 µM and the TGI (M14 melanoma) was 38.3 µM. The TGI (DU-145 prostate) was 29.7 µM and the TGI (TK-10 renal) was 43.2 µM.

With `CCN(CC)Cc1sc2nc3ccccc3n2c1-c1ccc(OC)cc1` the TGI (MALME-3M melanoma) was over 100 µM, the TGI (BT-549 breast) was over 100 µM and the TGI (OVCAR-8 ovarian) was over 100 µM. The TGI (MDA-N) was 7.02 µM, the TGI (NCI-H522 lung) was over 100 µM and the TGI (786-0 renal) was over 100 µM. It also gave a TGI (LOX IMVI melanoma) of over 100 µM, a TGI (HCC-2998 colon) of over 100 µM and a TGI (M14 melanoma) of over 100 µM. The TGI (DU-145 prostate) was over 100 µM and the TGI (TK-10 renal) was over 100 µM.
